Measurements taken from patent publication US8288548B2, “Oxazolo[5-4-b]pyridin-5-yl compounds” (Eli Lilly and Company, priority 2010, dated 2012).
Values joined by “and” are separate entries in the source; they are usually repeats but may differ in a detail not shown here. Identical values can stand only once.

How the values were obtained:
p38 MAP kinase [1] = test: In vivo target inhibition (IVTI) of p38 MAP kinase in naïve C57BL/6 mice (p-MAPKAPK2 in PBMCs, flow cytometry); settings: 2 hours post-dose
Procedure: IVTI of p38 MAP kinase is measured in peripheral blood mononuclear cells (PBMCs) of mice dosed orally with test compound using a flow cytometry assay for p-MAPKAPK2, a p38 MAP kinase substrate.
Male C57BL/6 mice (6-8 weeks old) are randomized into groups of 4. Test compound is administered by oral gavage in a 0.1 mL volume of vehicle (1% hydroxyethyl cellulose (HEC), 0.25% TWEEN® 80, 0.05% antifoam). Control animals are administered 0.1 mL vehicle with no test compound. For single dose and dose response studies, animals are sacrificed 2 hour post-dose. For time-course studies, animals are sacrificed at different time-points post-dose, typically, 1, 2, 4, 6, 18 and 24 hours. Whole blood is collected in EDTA-coated tubes (AQUISEL).
100 μL mouse whole blood is added into each EDTA tube and incubated at 37° C. for 10 minutes. […]
Samples are incubated at RT for 30 minutes. […] Samples are analyzed by flow cytometry (FACScaliber, BD). After defining the viable single cell population by side and forward scatter, the level of p-MAPKAPK2 is measured in the monocyte population defined (gated) by CD11b^hiLy6G^−.
The median fluorescence intensity in the monocyte cells is analyzed to determine the level of p-MAPKAPK2. […] Percent inhibition by test compound is determined by using the following equation: […]

p38 MAP kinase [2] = test: Inhibition of p38 MAP kinase in the cell-based assay (p-MAPKAPK2 cELISA, TNFα-stimulated HeLa cells); settings: Homo sapiens, TNFα stimulation, read-out: Relative IC50
p38β MAP kinase = target: T1, p38β MAP kinase (Homo sapiens, UniProt Q15759); test: Inhibition of p38β MAP kinase enzyme activity; assay type: biochemical; settings: 20 μM ATP
T1 construct: purchased Upstate Biotechnology/Millipore
T1 sequence (Q15759 whole entry): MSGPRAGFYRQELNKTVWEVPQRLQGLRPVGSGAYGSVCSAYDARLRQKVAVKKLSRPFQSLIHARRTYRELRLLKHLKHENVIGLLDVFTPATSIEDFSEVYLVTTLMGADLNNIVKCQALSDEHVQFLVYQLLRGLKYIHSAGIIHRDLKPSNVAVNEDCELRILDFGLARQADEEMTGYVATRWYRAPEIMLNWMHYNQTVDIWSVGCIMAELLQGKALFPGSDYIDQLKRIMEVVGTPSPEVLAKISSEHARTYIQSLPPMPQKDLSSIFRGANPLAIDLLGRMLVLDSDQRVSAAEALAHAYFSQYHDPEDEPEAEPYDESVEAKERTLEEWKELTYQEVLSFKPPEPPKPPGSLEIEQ
Procedure: The kinase reaction buffer is prepared essentially as described above. The substrate mix is prepared by combining the following: 2840 μL Kinase Reaction Buffer, 15.0 μL ATP at 10 mM, 125 μL EGFR peptide at 4 mM (9.174 mg/ml), 18.75 μL ^33P-ATP. The p38β MAP kinase enzyme stock solution is prepared by diluting 2.25 μL of a 0.57 mg/mL solution of commercial p38β MAP kinase (Upstate Biotechnology/Millipore) in 2000 μL of reaction buffer. Stock solutions of test compounds are generated essentially as described above.
The kinase assay is performed essentially as described for p38α MAP kinase. Final reaction conditions are as follows: 25 mM HEPES pH 7.5, 4.25 mM MgCl2, 1.30 mM DTT, 0.004% TRITON® X-100, 20 μM ATP, 65 μM EGFR peptide, 0.25 ng/μL p38β MAP kinase, 4% DMSO. […] For example, Example 1 has an IC50=0.007 μM.

COCC[C@H](C)Nc1nc2ccc(-c3nc(C(C)(C)CO)[nH]c3-c3ccc(F)cc3F)nc2o1 [Example 1, 2-[5-(2,4-Difluorophenyl)-4-[2-[[(1S)-3-methoxy-1-methyl-propyl]amino]oxazolo[5,4-b]pyridin-5-yl]-1H-imidazol-2-yl]-2-methyl-propan-1-ol]
Threshold Efficacious Dose for 70% inhibition (TED70) (p38 MAP kinase [1]; oral, PBMCs): 5.1 mg/kg | Threshold Efficacious Concentration for 70% inhibition (TEC70) (p38 MAP kinase [1]; plasma): 39.4 ng/mL and 0.084 μM | IC50 (p38 MAP kinase [2]): 1.6 nM | IC50 (p38β MAP kinase): 7 nM
